Measurements from patent US20170087106A1, “Method for supporting gut health” (priority 2015, published 2017).
Marks after values point to notes of the source that are not given here.

Assays:
COX-2 = assay: DCA-induced IBS in rats: colonic COX-2 expression by qPCR; type: in vivo, rat; settings: colonic tissue, two weeks oral daily, mean ± SEM
Experimental: (§1) Male Sprague Dawley rats (240-320 g) were administered DCA once daily on 3 consecutive days, and then divided into the different experimental groups (n=8): three received orally and daily CPM (40 and 100 mg/kg) or Gabapentin (70 mg/kg); a non IBS and an untreated control IBS group were also included. One and two weeks after, abdominal withdrawal reflex to colorectal distension (CRD) was semi quantitatively scored. Also the referred pain was evaluated with Von Frey filaments. After two weeks of treatment, all rats were sacrificed and the expression of different markers IL-1β and COX-2 evaluated in the colonic tissue by qPCR.

[1] = tested on: experimental model of irritable bowel syndrome (IBS) in rats induced by deoxycholic acid (DCA); assay: DCA-induced IBS in rats: abdominal withdrawal reflex to colorectal distension (CRD); type: in vivo, rat; settings: oral daily, mean ± SEM
Experimental: as §1

[2] = tested on: experimental model of irritable bowel syndrome (IBS) in rats induced by deoxycholic acid (DCA); assay: DCA-induced IBS in rats: referred pain with Von Frey filaments (AUC); type: in vivo, rat; settings: for referred pain (in words): Von Frey filaments; for AUC: oral daily, mean ± SEM
Experimental: as §1

IL-1β [3] = assay: DCA-induced IBS in rats: colonic IL-1β expression by qPCR; type: in vivo, rat; settings: colonic tissue, two weeks oral daily, mean ± SEM
Experimental: as §1

IL-17 = assay: TNBS rat colitis: colonic IL-17 mRNA by real-time PCR; type: in vivo; settings: colon, oral daily 7 days, 30 mg/kg, mean ± SEM
Experimental: (§2) Female Wistar rats (180-200 g) were randomly assigned to nine groups (n=10). Three groups received treatment with CaPyr (20, 40 and 100 mg/kg); other three received treatment with ethyl pyruvate (20, 40 and 100 mg/kg); and the remaining was treated with sulphasalazine (30 mg/kg). All compounds were dissolved in 1 ml of carboxymethylcellulose (0.2%) in water solution, and administered daily by oral gavage. An untreated TNBS control group and a non-colitic group were included for reference, which received the vehicle used to administer the test compounds. Colonic inflammation was induced in control and treated groups as generally described (see Galvez et al. 2014). Briefly, rats were fasted overnight, anesthetized with halothane and given TNBS dissolved in 0.25 ml of 50% ethanol (v/v) by means of a Teflon cannula inserted 8 cm through the anus. During and after TNBS administration, the rats were kept in a head-down position until they recovered from anaesthesia, and then returned to their cages. Rats from the non-colitic group were administered intracolonically 0.25 ml of phosphate buffered saline instead of TNBS. The treatments were given from the day of the colitis induction until the sacrifice of the rats with an overdose of halothane, seven days later. Animal body weights, occurrence of diarrhoea, and water and food intake were recorded daily throughout all the experiments. Once the animals were sacrificed, the colon was removed aseptically and placed on an ice-cold plate, longitudinally opened and cleaned from their luminal contents with cold saline. Afterwards, it was weighed and its length measured under a constant load (2 g). Each colon was scored for macroscopically visible damage on a 0-10 scale by two observers unaware of the experiment, according to the criteria described before (see Galvez et al. 2014). Colon samples (0.5 cm^2) containing all the layers were taken from a region of the inflamed colon corresponding to the adjacent segment to the gross macroscopic damage and were fixed in 4% buffered formaldehyde for the histological studies. Equivalent colonic segments were also obtained from the non-colitic group. The colon was subsequently minced, aliquoted and kept frozen at −80° C. until biochemical determinations and RNA extraction was performed.
(§3) Analysis of gene expression in colonic samples by RT-qPCR Total RNA from colonic samples was isolated using Trizol® (Thermo Fisher Scientific Inc., Waltham, Mass. USA) following the manufacturer's protocol. All RNA samples were quantified with the Thermo Scientific NanoDrop™ 2000 Spectrophotometer (Thermo Fisher Scientific Inc., Waltham, Mass. USA) and […] of RNA were reverse transcribed using oligo(dT) primers (Promega, Southampton, UK).
(§4) Real time quantitative PCR amplification and detection was performed on optical-grade 48 well plates in an Eco™ Real-Time PCR System (Illumina, CA, USA) with 20 ng of cDNA, the KAPA SYBR® FAST qPCR Master Mix (Illumina, CA, USA) and specific primers at their annealing temperature (Ta). To normalize mRNA expression, the expression of the housekeeping gene, glyceraldehyde-3-phosphate dehydrogenase (GAPDH) was measured. The mRNA relative quantitation was calculated using the ΔΔCt method.

IL-6 = assay: TNBS rat colitis: colonic IL-6 mRNA by real-time PCR; type: in vivo; settings: colon, oral daily 7 days, 30 mg/kg, mean ± SEM
Experimental: as §2, §3, §4

MUC-2 = assay: TNBS rat colitis: colonic MUC-2 mRNA by real-time PCR; type: in vivo; settings: colon, oral daily 7 days, 30 mg/kg, mean ± SEM
Experimental: as §2, §3, §4

[4] = tested on: TNBS experimental rat colitis; assay: TNBS rat colitis: colonic macroscopic damage score and weight/length ratio; type: in vivo; settings: TNBS rat colitis, oral daily 7 days, 30 mg/kg, mean ± SEM
Experimental: as §2

ICAM-1 = assay: TNBS rat colitis: colonic ICAM-1 mRNA by real-time PCR; type: in vivo; settings: colon, oral daily 7 days, 30 mg/kg, mean ± SEM
Experimental: as §2, §3, §4

MCP-1 = assay: TNBS rat colitis: colonic MCP-1 mRNA by real-time PCR; type: in vivo; settings: colon, oral daily 7 days, 30 mg/kg, mean ± SEM
Experimental: as §2, §3, §4

IL-1β [5] = assay: TNBS rat colitis: colonic IL-1β mRNA by real-time PCR; type: in vivo; settings: colon, oral daily 7 days, 30 mg/kg, mean ± SEM
Experimental: as §2, §3, §4

iNOS = assay: TNBS rat colitis: colonic iNOS mRNA by real-time PCR; type: in vivo; settings: colon, oral daily 7 days, 30 mg/kg, mean ± SEM
Experimental: as §2, §3, §4

TFF-3 = assay: TNBS rat colitis: colonic TFF-3 mRNA by real-time PCR; type: in vivo; settings: colon, oral daily 7 days, 30 mg/kg, mean ± SEM
Experimental: as §2, §3, §4

IL-23 = assay: TNBS rat colitis: colonic IL-23 mRNA by real-time PCR; type: in vivo; settings: colon, oral daily 7 days, 30 mg/kg, mean ± SEM
Experimental: as §2, §3, §4

IL-1β [6] = assay: TNBS rat colitis: colonic IL-1β by ELISA; type: in vivo; settings: colonic tissue, oral daily 7 days, 30 mg/kg, mean ± SEM
Experimental: as §2
(§5) Myeloperoxidase (MPO) activity was measured according to the technique described previously (Krawiszet al., 1984); the results were expressed as MPO units per gram of wet tissue; one unit of MPO activity was defined as that degrading 1 μmol hydrogen peroxide/min at 25° C. Total glutathione (GSH) content was quantified with the recycling assay described by Anderson (1985), and the results were expressed as nmol/g wet tissue. In order to evaluate tissue IL-1β levels, the colonic samples were homogenized in phosphate buffered saline supplemented with 0.1% sodium dodecyl sulfate (SDS), 0.1% sodium deoxycholate, 1% Triton X-100 and protease and phosphatase inhibitors (aprotinin, leupeptin and phenylmethylsulfonyl fluoride). The cytokine was quantified by enzyme-linked immunoabsorbent assay (R&D Systems Inc., Minneapolis, Minn., USA) and the results were expressed as pg/g wet tissue.

glutathione (GSH) = assay: TNBS rat colitis: colonic total glutathione (GSH) content; type: in vivo; settings: colonic tissue, oral daily 7 days, 30 mg/kg, mean ± SEM
Experimental: as §2, §5

myeloperoxidase (MPO) = assay: TNBS rat colitis: colonic myeloperoxidase (MPO) activity; type: in vivo; settings: colonic tissue, oral daily 7 days, 30 mg/kg, mean ± SEM
Experimental: as §2, §5

[7] = tested on: TNBS experimental rat colitis; assay: TNBS rat colitis: microscopic (histological) damage score; type: in vivo; settings: oral daily 7 days, 30 mg/kg, mean ± SEM
Experimental: as §2
Cross-sections were selected and embedded in paraffin. Full-thickness sections of 5 μm were obtained at different levels and stained with haematoxylin and eosin. The histological damage was evaluated by a pathologist observer, who was blinded to the experimental groups, according to the criteria previously described by Galvez.

IL-12 = assay: TNBS rat colitis: colonic IL-12 mRNA by real-time PCR; type: in vivo; settings: colon, oral daily 7 days, 30 mg/kg, mean ± SEM
Experimental: as §2, §3, §4

CINC-1 = assay: TNBS rat colitis: colonic CINC-1 mRNA by real-time PCR; type: in vivo; settings: colon, oral daily 7 days, 30 mg/kg, mean ± SEM
Experimental: as §2, §3, §4

Which results are given for `NCC1(CC(=O)O)CCCCC1` [Gabapentin]?
qPCR COX-2 (COX-2; 30 mg/kg (table)): 1.74 ± 0.36^c fold increase; CRD ([1]; 30 mg/kg (table)): 0.25 ± 0.1^a units; referred pain (in words) [2]: attenuated; AUC ([2]; 30 mg/kg (table)): 27.30 ± 6.83^a arbitrary units; qPCR IL-1β (IL-1β [3]; 30 mg/kg (table)): 8.28 ± 1.38^c fold increase

For calcium pyruvate monohydrate [CPM], which “qPCR COX-2” value (COX-2; 40 mg/kg) is on record?
The value was 2.47 ± 0.58^c fold increase.

And the “qPCR COX-2” value (COX-2; 100 mg/kg)?
The value was 1.60 ± 0.36^c fold increase.

And the CRD ([1]; 40 mg/kg)?
The CRD was 1.30 ± 0.14^c units.

And the CRD ([1]; 100 mg/kg)?
The CRD was 0.70 ± 0.14^a,c units.

What about the “referred pain (in words)” value [2] of the same compound?
The value was “attenuated”.

And the AUC ([2]; 40 mg/kg)?
Its AUC is 104.65 ± 20.48^a arbitrary units.

What about the AUC ([2]; 100 mg/kg) of the same compound?
Its AUC is 63.70 ± 22.75^a arbitrary units.

What about the “qPCR IL-1β” value (IL-1β [3]; 40 mg/kg) of the same compound?
The value was 7.82 ± 2.07^c fold increase.

What about the “qPCR IL-1β” value (IL-1β [3]; 100 mg/kg) of the same compound?
The value was 5.52 ± 1.15^c fold increase.

What does the source list for `O=C(O)c1cc(/N=N/c2ccc(S(=O)(=O)Nc3ccccn3)cc2)ccc1O` [SAZ, sulphasalazine]?
IL-17 mRNA expression (IL-17): 2.22 ± 0.54 fold increase; IL-6 mRNA expression (IL-6): 4.21 ± 0.80 fold increase; MUC-2 mRNA expression (MUC-2): 0.53 ± 0.14 fold increase; Damage Score (0-10) [4]: 6.7 ± 0.4; Weight/length ([4]; colon): 180.4 ± 16.9 mg/cm; ICAM-1 mRNA expression (ICAM-1): 2.90 ± 0.88 fold increase; MCP-1 mRNA expression (MCP-1): 2.62 ± 0.41 fold increase; IL-1β mRNA expression (IL-1β [5]): 9.70 ± 0.90 fold increase; iNOS mRNA expression (iNOS): 16.47 ± 2.75 fold increase; TFF-3 mRNA expression (TFF-3): 0.91 ± 0.12 fold increase; IL-23 mRNA expression (IL-23): 1.26 ± 0.18 fold increase; IL-1β (ELISA) (IL-1β [6]): 840.0 ± 120.0 ng/g tissue; GSH (glutathione (GSH)): 900 ± 118 nmol/g tissue; MPO (myeloperoxidase (MPO)): 82.8 ± 8.2 mU/g tissue; Microscopic Damage Score (0-59) [7]: 30 ± 5; IL-12 mRNA expression (IL-12): 1.59 ± 0.24 fold increase; CINC-1 mRNA expression (CINC-1): 4.89 ± 0.82 fold increase
